According to ChEMBL document CHEMBL3817795, “Identification and optimisation of a series of N-(4-anilino-2-pyridyl)acetamide activin receptor-like kinase 1 (ALK1) inhibitors” (Medchemcomm, 2016):
≈ marks a conversion by molar mass, not a printed value.

Key:
[1] = Clearance in Han Wistar rat; format: ADME, organism-based; settings: in vivo
[2] = molecular target: Mitogen-activated protein kinase 8 (Homo sapiens) (UniProt P45983); assay: Inhibition of JNK1 (unknown origin) at 1 uM after 30 mins
[3] = molecular target: Tyrosine-protein kinase CSK (Homo sapiens) (UniProt P41240); assay: Inhibition of human recombinant full-length CSK at 1 uM after 30 mins
[4] = molecular target: Mitogen-activated protein kinase 11 (Homo sapiens) (UniProt Q15759); assay: Inhibition of human recombinant full-length p38beta at 1 uM after 30 mins
[5] = molecular target: Mitogen-activated protein kinase 14 (Homo sapiens) (UniProt Q16539); assay: Inhibition of human recombinant full-length p38alpha at 1 uM after 30 mins
[6] = molecular target: Vascular endothelial growth factor receptor 1 (Homo sapiens) (UniProt P17948); assay: Inhibition of human recombinant full-length FLT1 at 1 uM after 30 mins
[7] = molecular target: Serine/threonine-protein kinase pim-3 (Homo sapiens) (UniProt Q86V86); assay: Inhibition of human recombinant full-length PIM3 expressed in insect Sf21 cells at 1 uM using RSRHSSYPAGT as substrate after 30 mins
[8] = molecular target: Dual specificity tyrosine-phosphorylation-regulated kinase 3 (Homo sapiens) (UniProt O43781); assay: Inhibition of human recombinant full-length DYRK3 expressed in Escherichia coli at 1 uM using KKISGRLSPIMTEQ as substrate after 30 mins
[9] = molecular target: Inhibitor of nuclear factor kappa-B kinase subunit beta (Homo sapiens) (UniProt O14920); assay: Inhibition of human recombinant full-length IKKbeta expressed in insect Sf21 cells at 1 uM using LDDRHDSGLDSMKDEEY as substrate after 30 mins
[10] = molecular target: Inhibitor of nuclear factor kappa-B kinase subunit epsilon (Homo sapiens) (UniProt Q14164); assay: Inhibition of human recombinant full-length IKKepsilon expressed in insect Sf21 cells at 1 uM using MBP as substrate after 30 mins
[11] = molecular target: Tyrosine-protein kinase SYK (Homo sapiens) (UniProt P43405); assay: Inhibition of SYK (unknown origin) at 1 uM
[12] = molecular target: Homeodomain-interacting protein kinase 2 (Homo sapiens) (UniProt Q9H2X6); assay: Inhibition of human recombinant HIPK2 (165 to 564 residues) expressed in Escherichia coli at 1 uM after 30 mins
[13] = Solubility of the compound; format: physicochemical
[14] = molecular target: Ribosomal protein S6 kinase beta-1 (Homo sapiens) (UniProt P23443); assay: Inhibition of P70S6K (unknown origin) at 1 uM
[15] = molecular target: Insulin-like growth factor 1 receptor (Homo sapiens) (UniProt P08069); assay: Inhibition of IGF1R (unknown origin) at 1 uM
[16] = molecular target: TGF-beta receptor type-1 (Homo sapiens) (UniProt P36897); assay: Inhibition of ALK5 in recombinant human MDA-MB-468 cells assessed as translocation of GFP-smad2; format: cell-based
[17] = molecular target: T1, Activin receptor type-1-like (Homo sapiens, UniProt P37023); assay: Inhibition of ALK1 in HMEC-1 assessed as translocation of pSMAD1/5
[18] = molecular target: 3-phosphoinositide-dependent protein kinase 1 (Homo sapiens) (UniProt O15530); assay: Inhibition of PDPK1 (unknown origin) at 1 uM
[19] = molecular target: Lymphokine-activated killer T-cell-originated protein kinase (Homo sapiens) (UniProt Q96KB5); assay: Inhibition of human recombinant full-length PBK at 1 uM after 30 mins
[20] = molecular target: MAP/microtubule affinity-regulating kinase 3 (Homo sapiens) (UniProt P27448); assay: Inhibition of human recombinant full-length MARK3 expressed in insect Sf21 cells at 1 uM using KKKVSRSGLYRSPSMPENLNRPR as substrate after 30 mins
[21] = molecular target: Serine/threonine-protein kinase PLK1 (Homo sapiens) (UniProt P53350); assay: Inhibition of human recombinant full-length PLK1 expressed in insect Sf21 cells at 1 uM using ISDELMDATFADQEAKKK as substrate after 30 mins
[22] = molecular target: Serine/threonine-protein kinase TBK1 (Homo sapiens) (UniProt Q9UHD2); assay: Inhibition of human recombinant full-length TBK1 expressed in insect Sf21 cells at 1 uM using AKPKGNKDYHLQTCCGSLAYRRR as substrate
[23] = molecular target: MAP kinase-activated protein kinase 5 (Homo sapiens) (UniProt Q8IW41); assay: Inhibition of MAPKAPK5 (unknown origin) at 1 uM
[24] = molecular target: Protein kinase C alpha type (Homo sapiens) (UniProt P17252); assay: Inhibition of human recombinant full-length PKCa expressed in insect Sf21 cells at 1 uM using histone H1 as substrate after 30 mins
[25] = molecular target: Mitogen-activated protein kinase 13 (Homo sapiens) (UniProt O15264); assay: Inhibition of MAPK13 (unknown origin) at 1 uM
[26] = molecular target: Ribosomal protein S6 kinase alpha-5 (Homo sapiens) (UniProt O75582); assay: Inhibition of human recombinant full-length MSK1 at 1 uM after 30 mins
[27] = molecular target: MAP kinase-activated protein kinase 2 (Homo sapiens) (UniProt P49137); assay: Inhibition of human recombinant […] MAPKAPK2 (46 to 400 residues) expressed in Escherichia coli at 1 uM after 30 mins
[28] = molecular target: Tyrosine-protein kinase BTK (Homo sapiens) (UniProt Q06187); assay: Inhibition of BTK (unknown origin) at 1 uM
Mus musculus = assay: Free Cmax in nude mouse at 50 mg/kg, po administered as single dose after 24 hrs; format: ADME, organism-based; settings: in vivo
[29] = molecular target: Calcium/calmodulin-dependent protein kinase kinase 2 (Homo sapiens) (UniProt Q96RR4); assay: Inhibition of human recombinant full-length CAMKKbeta expressed in Escherichia coli at 1 uM using AKPKGNKDYHLQTCCGSLAYRRR as substrate
Activin receptor type-1 = Activin receptor type-1 (Homo sapiens, UniProt Q04771); assay: Inhibition of human recombinant GST-tagged ALK2 (amino acid 147 end) by FRET assay
[30] = molecular target: Myosin light chain kinase, smooth muscle (Homo sapiens) (UniProt Q15746); assay: Inhibition of human recombinant smMLCK (475 to 838 residues) expressed in Escherichia coli at 1 uM using KKRPQRATSNVFA as substrate after 30 mins
[31] = molecular target: T1, Activin receptor type-1-like; assay: Inhibition of human recombinant GST-tagged ALK1 expressed in baculovirus by FRET assay
TGF-beta receptor type-1 = TGF-beta receptor type-1 (Homo sapiens, UniProt P36897); assay: Inhibition of full length human N-terminal GST-tagged ALK5 expressed in baculovirus by FRET assay
[32] = molecular target: Insulin receptor (Homo sapiens) (UniProt P06213); assay: Inhibition of INSR (unknown origin) at 1 uM
[33] = molecular target: Protein kinase C zeta type (Homo sapiens) (UniProt Q05513); assay: Inhibition of PKCz (unknown origin) at 1 uM
[34] = molecular target: Fibroblast growth factor receptor 1 (Homo sapiens) (UniProt P11362); assay: Inhibition of human recombinant FGFR1 (400 to 820 residues) expressed in insect Sf21 cells at 1 uM using poly(Glu4-Tyr1) as substrate after 30 mins
[35] = molecular target: T1, Activin receptor type-1-like; assay: Inhibition of ALK1 (unknown origin)

T1 sequence (P37023 whole entry): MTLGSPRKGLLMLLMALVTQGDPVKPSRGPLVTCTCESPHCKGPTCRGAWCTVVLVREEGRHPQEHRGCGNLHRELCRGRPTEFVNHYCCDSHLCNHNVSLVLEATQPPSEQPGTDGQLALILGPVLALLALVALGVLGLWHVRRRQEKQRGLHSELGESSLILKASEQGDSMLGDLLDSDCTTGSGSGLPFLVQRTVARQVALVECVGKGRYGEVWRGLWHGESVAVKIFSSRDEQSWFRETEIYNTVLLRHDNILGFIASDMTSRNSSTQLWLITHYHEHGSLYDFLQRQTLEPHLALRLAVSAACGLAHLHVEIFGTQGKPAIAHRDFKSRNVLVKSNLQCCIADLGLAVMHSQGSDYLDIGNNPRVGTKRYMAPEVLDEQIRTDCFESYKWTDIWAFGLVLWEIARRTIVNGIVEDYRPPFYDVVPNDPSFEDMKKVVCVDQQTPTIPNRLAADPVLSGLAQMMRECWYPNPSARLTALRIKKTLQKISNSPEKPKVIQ
Chain of Insulin receptor (Homo sapiens) (P06213 28-758 limits assumed): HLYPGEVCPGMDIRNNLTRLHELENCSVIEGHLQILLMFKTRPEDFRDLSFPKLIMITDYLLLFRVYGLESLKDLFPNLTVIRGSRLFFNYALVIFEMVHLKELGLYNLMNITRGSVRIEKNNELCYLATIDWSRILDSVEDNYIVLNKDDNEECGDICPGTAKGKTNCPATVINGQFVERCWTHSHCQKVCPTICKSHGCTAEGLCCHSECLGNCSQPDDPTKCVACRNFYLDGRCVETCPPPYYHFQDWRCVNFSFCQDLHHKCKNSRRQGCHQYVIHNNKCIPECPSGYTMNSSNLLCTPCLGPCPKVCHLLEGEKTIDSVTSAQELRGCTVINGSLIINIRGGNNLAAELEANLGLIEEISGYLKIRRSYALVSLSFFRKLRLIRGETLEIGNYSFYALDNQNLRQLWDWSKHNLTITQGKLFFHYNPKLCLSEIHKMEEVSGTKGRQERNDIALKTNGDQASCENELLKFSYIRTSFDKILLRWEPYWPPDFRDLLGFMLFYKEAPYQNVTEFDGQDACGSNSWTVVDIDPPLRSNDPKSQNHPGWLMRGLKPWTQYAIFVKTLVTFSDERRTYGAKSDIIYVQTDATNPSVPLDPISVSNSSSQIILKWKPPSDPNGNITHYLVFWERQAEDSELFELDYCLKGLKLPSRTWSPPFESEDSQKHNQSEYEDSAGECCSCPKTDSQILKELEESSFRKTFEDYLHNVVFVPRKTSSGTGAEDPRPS
Chain of Insulin receptor (Homo sapiens) (P06213 763-1382 limits assumed): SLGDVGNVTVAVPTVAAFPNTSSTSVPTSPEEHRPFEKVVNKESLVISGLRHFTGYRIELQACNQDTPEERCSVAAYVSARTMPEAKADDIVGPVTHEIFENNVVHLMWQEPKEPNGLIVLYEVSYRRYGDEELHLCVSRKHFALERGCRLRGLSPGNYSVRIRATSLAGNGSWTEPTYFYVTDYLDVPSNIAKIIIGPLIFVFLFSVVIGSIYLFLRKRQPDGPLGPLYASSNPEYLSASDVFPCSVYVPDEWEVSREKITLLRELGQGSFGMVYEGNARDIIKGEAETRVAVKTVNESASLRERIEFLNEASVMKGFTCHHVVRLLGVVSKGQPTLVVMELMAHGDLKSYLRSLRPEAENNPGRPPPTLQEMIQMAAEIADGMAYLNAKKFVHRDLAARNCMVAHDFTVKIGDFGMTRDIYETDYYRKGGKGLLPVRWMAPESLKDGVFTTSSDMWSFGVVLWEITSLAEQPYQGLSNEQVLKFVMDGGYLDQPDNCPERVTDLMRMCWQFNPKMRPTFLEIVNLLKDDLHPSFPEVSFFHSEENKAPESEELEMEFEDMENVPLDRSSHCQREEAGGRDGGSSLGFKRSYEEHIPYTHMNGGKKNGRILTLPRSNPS
Chain of Myosin light chain kinase, smooth muscle (Homo sapiens) (Q15746 whole entry, the tested form may be a part): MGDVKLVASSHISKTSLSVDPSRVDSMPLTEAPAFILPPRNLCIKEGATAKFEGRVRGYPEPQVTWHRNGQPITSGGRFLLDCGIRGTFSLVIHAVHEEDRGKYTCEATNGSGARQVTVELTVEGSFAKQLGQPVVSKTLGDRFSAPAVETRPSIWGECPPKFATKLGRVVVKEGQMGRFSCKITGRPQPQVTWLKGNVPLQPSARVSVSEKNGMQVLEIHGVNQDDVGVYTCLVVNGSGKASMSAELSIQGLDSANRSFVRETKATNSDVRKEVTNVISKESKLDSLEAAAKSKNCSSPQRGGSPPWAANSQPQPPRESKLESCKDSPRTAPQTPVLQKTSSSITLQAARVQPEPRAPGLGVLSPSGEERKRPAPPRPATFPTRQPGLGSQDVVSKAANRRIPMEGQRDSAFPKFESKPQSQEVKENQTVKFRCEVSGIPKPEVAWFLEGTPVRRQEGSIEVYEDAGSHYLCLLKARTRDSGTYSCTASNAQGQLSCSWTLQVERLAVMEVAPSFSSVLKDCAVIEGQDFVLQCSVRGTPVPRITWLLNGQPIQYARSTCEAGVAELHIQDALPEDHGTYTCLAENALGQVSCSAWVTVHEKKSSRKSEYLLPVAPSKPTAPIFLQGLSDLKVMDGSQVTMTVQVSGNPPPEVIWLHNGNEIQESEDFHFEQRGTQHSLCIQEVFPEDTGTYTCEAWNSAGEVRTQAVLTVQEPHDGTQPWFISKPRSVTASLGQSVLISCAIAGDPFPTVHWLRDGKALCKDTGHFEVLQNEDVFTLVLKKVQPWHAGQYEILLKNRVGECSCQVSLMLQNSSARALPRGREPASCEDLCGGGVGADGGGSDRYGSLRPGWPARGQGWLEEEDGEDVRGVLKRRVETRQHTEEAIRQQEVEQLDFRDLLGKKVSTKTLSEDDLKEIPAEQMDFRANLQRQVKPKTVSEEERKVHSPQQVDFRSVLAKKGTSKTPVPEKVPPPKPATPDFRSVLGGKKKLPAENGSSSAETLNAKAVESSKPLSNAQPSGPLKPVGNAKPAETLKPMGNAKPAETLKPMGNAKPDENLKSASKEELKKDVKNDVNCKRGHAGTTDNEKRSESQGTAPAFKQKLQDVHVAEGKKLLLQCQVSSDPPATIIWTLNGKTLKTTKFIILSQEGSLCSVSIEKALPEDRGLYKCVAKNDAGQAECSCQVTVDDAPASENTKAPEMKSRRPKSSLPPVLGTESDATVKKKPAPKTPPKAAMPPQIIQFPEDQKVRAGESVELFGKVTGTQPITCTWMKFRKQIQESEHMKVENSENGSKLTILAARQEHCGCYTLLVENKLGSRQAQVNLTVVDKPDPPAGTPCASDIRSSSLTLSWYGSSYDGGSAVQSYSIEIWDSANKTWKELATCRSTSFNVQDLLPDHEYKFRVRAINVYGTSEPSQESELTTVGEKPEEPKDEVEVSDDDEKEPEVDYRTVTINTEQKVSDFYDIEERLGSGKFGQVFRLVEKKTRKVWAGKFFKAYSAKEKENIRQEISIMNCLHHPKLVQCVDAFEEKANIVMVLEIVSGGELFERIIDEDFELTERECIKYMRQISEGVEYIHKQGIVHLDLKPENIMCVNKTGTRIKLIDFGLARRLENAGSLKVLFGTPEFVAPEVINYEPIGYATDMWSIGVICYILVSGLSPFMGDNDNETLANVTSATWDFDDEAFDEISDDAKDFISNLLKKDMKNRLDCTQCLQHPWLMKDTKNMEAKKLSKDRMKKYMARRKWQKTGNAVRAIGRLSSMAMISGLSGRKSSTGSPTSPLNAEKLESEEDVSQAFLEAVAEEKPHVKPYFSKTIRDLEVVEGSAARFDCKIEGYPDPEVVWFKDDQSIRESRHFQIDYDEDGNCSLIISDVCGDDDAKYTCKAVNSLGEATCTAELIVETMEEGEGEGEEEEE
Chain of Inhibitor of nuclear factor kappa-B kinase subunit beta (Homo sapiens) (O14920 whole entry): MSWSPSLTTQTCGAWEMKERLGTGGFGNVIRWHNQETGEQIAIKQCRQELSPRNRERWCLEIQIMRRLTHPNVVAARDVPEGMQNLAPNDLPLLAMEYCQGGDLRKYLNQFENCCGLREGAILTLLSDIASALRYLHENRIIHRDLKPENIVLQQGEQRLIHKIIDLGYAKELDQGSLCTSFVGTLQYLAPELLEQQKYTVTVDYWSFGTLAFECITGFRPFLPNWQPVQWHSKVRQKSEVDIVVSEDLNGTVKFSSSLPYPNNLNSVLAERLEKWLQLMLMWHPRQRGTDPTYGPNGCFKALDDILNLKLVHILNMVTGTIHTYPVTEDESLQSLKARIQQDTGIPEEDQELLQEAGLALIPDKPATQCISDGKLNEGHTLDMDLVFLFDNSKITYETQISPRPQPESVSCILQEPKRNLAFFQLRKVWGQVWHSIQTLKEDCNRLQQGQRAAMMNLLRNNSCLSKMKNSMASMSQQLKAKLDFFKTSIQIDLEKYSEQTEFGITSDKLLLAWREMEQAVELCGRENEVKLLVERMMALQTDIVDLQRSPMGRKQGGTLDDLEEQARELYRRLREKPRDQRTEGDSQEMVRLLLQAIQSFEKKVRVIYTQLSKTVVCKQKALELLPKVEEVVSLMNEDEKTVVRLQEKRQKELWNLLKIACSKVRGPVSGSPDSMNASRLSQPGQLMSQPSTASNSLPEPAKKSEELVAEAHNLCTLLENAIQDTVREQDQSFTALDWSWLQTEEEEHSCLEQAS
Chain of Activin receptor type-1 (Q04771 whole entry, the tested form may be a part): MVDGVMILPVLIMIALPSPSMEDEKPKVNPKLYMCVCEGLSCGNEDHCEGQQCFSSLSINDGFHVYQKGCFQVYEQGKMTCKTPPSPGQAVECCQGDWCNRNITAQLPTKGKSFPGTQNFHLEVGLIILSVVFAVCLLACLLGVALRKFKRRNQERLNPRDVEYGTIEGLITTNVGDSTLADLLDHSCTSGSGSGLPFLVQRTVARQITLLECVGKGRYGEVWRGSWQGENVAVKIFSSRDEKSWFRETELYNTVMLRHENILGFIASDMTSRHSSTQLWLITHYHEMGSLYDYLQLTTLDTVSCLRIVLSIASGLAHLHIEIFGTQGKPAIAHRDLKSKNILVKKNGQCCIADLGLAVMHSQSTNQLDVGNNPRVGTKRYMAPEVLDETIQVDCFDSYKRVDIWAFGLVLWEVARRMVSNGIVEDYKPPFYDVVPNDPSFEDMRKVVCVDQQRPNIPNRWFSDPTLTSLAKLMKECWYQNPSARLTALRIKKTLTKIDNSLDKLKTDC

`O=C(Nc1cc(Nc2c(Cl)cnc3c2OCO3)ccn1)C1CC1` showed a clearance [1] of 8.4 mL/min/kg, an inhibition [2] of under 80% and an inhibition [3] of under 80%. The inhibition [4] was under 80%, the inhibition [5] was under 80% and the inhibition [6] was under 80%. It also gave an inhibition [7] of under 80%, an inhibition [8] of under 80% and an inhibition [9] of under 80%. It also gave an inhibition [10] of under 80%, an inhibition [11] of under 80% and an inhibition [12] of under 80%. The solubility [13] was 63 µM (≈ 21 µg/mL), the inhibition [14] was under 80% and the inhibition [15] was under 80%. The INH [16] was 0.12 µM, the IC50 [17] was 45 nM and the inhibition [18] was under 80%. The inhibition [19] was under 80%, the inhibition [20] was under 80% and the inhibition [21] was under 80%. It also gave an inhibition [22] of under 80%, an inhibition [23] of under 80% and an inhibition [24] of under 80%. The inhibition [25] was under 80%, the inhibition [26] was under 80% and the inhibition [27] was under 80%. For the same compound, the inhibition [28] was under 80%, the fCmax (Mus musculus) was 31.7 µM and the inhibition [29] was under 80%. The IC50 (Activin receptor type-1) was 1.2 nM, the inhibition [30] was under 80% and the IC50 [31] was 1.1 nM. It also gave an IC50 (TGF-beta receptor type-1) of 1.9 nM, an inhibition [32] of under 80% and an inhibition [33] of under 80%. It also gave an inhibition [34] of under 80% and an IC50 [35] of 4 nM.
